Data from patent EP0567613B1, “COMPOSITIONS FOR THERAPY AND PREVENTION OF CANCER” (The Government of the United States of America, as …, priority 1991, dated 1993).
Read-outs that look alike come from different tables or passages of the source.

How the values were obtained:
[1] = system: 4C8a10 cells (revertants of Haras-transformed NIH3T3 fibroblasts); assay: Tumor formation of cells pretreated in culture and injected s.c. into athymic nude mice; type: in vivo; details: cells pretreated with NaPA 1.5 mg/ml; after 3 weeks
Excerpt: One-two weeks later the cells were transplanted subcutaneously into athymic mice.
The experimental model involved nonmalignant 4C8a10 cells (revertants of Haras-transformed NIH3T3 fibroblasts). […]
Frederick Cancer Research Facility).

[2] = cited from earlier work
myc = assay: Northern blot analysis of myc mRNA in HL-60; type: cell-based, human; details: HL-60, NaPA 0.8 mg/ml
Method: (§1) Cytoplasmic RNA (20 µg/lane) was subjected to Northern blot analysis using ^32P-labeled specific DNA probes. Ethidium bromide-stained […] indicates the relative amounts of total RNA in each lane. Figure A. Induction of a P2 expression in 10T1/2 cells. […] Figure B. Kinetics of myc inhibition and HLA-A induction in HL-60. […] Figure C. Dose-dependent and specificity of effect.
(§2) In HL-60, cell transformation has been linked to myc amplification and overexpression, and differentiation would typically require down regulation of myc expression. [Collins, S.J. The HL-60 promyelocytic leukemia cell line: Proliferation, differentiation, and cellular oncogene expression. Blood. 70:1233-1244 (1987)]. […] The 32P-labeled probes used were myc 3rd exon (Oncor) and HLA-A3 Hind III/EcoRI fragment. […] This occurred within 4 hours of treatment, preceding the phenotypic changes detectable by 48 hrs, approximately two cell cycles, after treatment. Similar kinetics of myc inhibition have been reported for other differentiation agents such as dimethyl sulfoxide, sodium butyrate, bromodeoxyuridine, retinoids, and 1,25-dihydroxyvitamin D3. […] It is believed that this may enhance the immunogenicity of tumors in vivo.

Astrocytoma U373 = assay: Tumor cell growth / proliferation; type: cell-based; details: Homo sapiens
HLA-A mRNA = assay: Northern blot analysis in PC3 cells; type: cell-based, human; details: NaPA treated PC3 cells
HL-60 [3] = assay: Cell proliferation (cell number); type: cell-based, human
Method: (§3) The adherent cells were detached with trypsin/EDTA and the cell number determined using a hemocytometer. Data points indicate the mean ± S.D. of duplicates from two independent experiments. The cell lines were obtained from the American Type Culture Collection and maintained in RPMI 1640 (HL-60) or Dulbecco's Modified Eagle's Medium (10T1/2) supplemented with 10% heat inactivated fetal calf serum (Gibco Laboratories), 2 mM L-Glutamine, and antibiotics.

[4] = system: adipocyte-specific aP2 gene; assay: Northern blot analysis of aP2 expression; type: cell-based, mouse; details: treated confluent 10T1/2 cultures
Method: as §1
In an attempt to explore the possible mechanism of action, Northern blot analysis of HL-60 and 10T1/2 cells was performed according to conventional methods. […] The aP2 cDNA probe was labeled with [^32P]dCTP (NEN) using a commercially available random primed DNA labeling kit. Ethidium bromide-stained 28S rRNA indicates the relative amounts of total RNA in each lane.
Expression of the adipocyte-specific aP2 gene was induced within 24 hrs in treated 10T1/2 confluent cultures reaching maximal mRNA levels by 72 hrs.

[5] = system: Erythroleukemia K562 cells; assay: Induction of hemoglobin synthesis (benzidine staining, protein quantitation); details: for Benzidine Positive Cells: seven days
HLA-A = assay: Northern blot analysis of HLA-A mRNA in HL-60; type: cell-based, human; details: HL-60, NaPA 0.8 and 1.6 mg/ml
Method: as §1, §2

lung adenocarcinoma H596 = assay: Tumor cell growth / proliferation; type: cell-based; details: Homo sapiens, NCI-H596; read-out: concentration causing about 50% inhibition of growth
HL-60 [6] = assay: Granulocyte differentiation (NBT reduction, morphology) and viability by trypan blue exclusion
Method: The number of NBT positive cells was determined after 4 [solid bars] or 7 days [hatched bar] of treatment. […] Glutamine Starvation (Gln, < 0.06 mM) was as described (18).
The ability of cells to reduce nitroblue tetrazolium (NBT) is indicative of oxidase activity which is characteristic of the more mature forms of human bone marrow granulocytes. NBT reduction thus serves as an indicator of granulocyte differentiation. […] Glutamine starvation (Gln, < 0.06 mM) was as described. […] DON, ACV and HPA are glutamine antagonists.

collagenase type IV = assay: Northern blot analysis in PC3 cells; type: cell-based, human; details: NaPA treated PC3 cells
Malignant Melanoma A375 = assay: Tumor cell growth / proliferation
10T1/2 = assay: Cell proliferation (cell number); type: cell-based, mouse; details: treated for four days
Method: as §3

Fibrosarcoma V7T = assay: Tumor cell growth / proliferation; type: cell-based
Excerpt: (§4) • # 7-10 For effective responses, the tumors may require much higher drug concentrations if used alone.
(§5) A differential effect was seen also in ras-transformed fibrosarcoma V7T, when compared to the parental non-tumorigenic N1H3T3 cells.

Osteosarcoma HOS = assay: Tumor cell growth / proliferation; type: cell-based; details: read-out: % Inhibition by NaPA 0.8 mg/ml
Excerpt: as §4, §5

Osteosarcoma KRIB = assay: Tumor cell growth / proliferation; type: cell-based
Excerpt: as §4, §5

C3H 10T1/2 Cells = assay: Tumorigenicity of treated cells in athymic mice; details: NaPA 1.6 mg/ml continuous, time 13 weeks
Method: Premalignant cells (3-4 x 10^5) were plated in 75 cm^2 dishes and 5-AzadC 0.1 µM was added to the growth medium at 20 and 48 hrs after plating. The cells were then subcultured in the absence of the nucleoside analog for an additional seven weeks. […] For the tumorigenicity assay, 4-5 week-old female athymic nude mice were inoculated s.c. with 1 x 10^6 cells and observed for tumor growth at the site of injection.

[7] = after seven days of NaPA treatment, or four days when combined with RA
[8] = read-out: % Inhibition by NaPA 0.8 mg/ml, 0.8 mg/ml
[9] = read-out: concentration causing about 50% inhibition of growth

SMILES: O=C([O-])Cc1ccccc1.[Na+] [NaPA, sodium phenylacetate]
- Tumor Formation Incidence [1]: 0/8
- plasma levels ([2]; children with urea cycle disorders, infusion 300-500 mg/kg/day): approximately 800 µg/ml
- plasma levels ([2]; humans, intravenous infusion 250-500 mg/kg/day): 600 to 800 µg/mL
- time to decline in the amounts of myc mRNA (myc): ≤ 4 h
- IC50 (Astrocytoma U373; U373 MG, read-out: concentration causing about 50% inhibition of growth): 400 to 800 µg/mL
- inhibition at 800 µg/mL (Astrocytoma U373; read-out: % Inhibition by NaPA 0.8 mg/ml, U373, 0.8 mg/ml): ≥ 50%
- level of HLA-A mRNA (HLA-A mRNA): an increase in the level of HLA-A mRNA
- inhibition at 800 µg/mL (HL-60 [3]; Homo sapiens, read-out: % Inhibition by NaPA 0.8 mg/ml, HL-60, 0.8 mg/ml): ≤ 40%
- cell proliferation (HL-60 [3]; treated for four days): dose dependent inhibition of cell proliferation
- time to induction of aP2 gene expression [4]: ≤ 24 h
- time to maximal aP2 mRNA levels [4]: ≤ 72 h
- hemoglobin accumulation, increase over control cells ([5]; 0.8 and 1.6 mg/ml): 4-9 fold
- Benzidine Positive Cells ([5]; NaPA 0.8 mg/ml): 6.0%
- Benzidine Positive Cells ([5]; NaPA 1.6 mg/ml): 17.1%
- HLA-A mRNA (HLA-A): time- and dose-dependent accumulation of HLA-A mRNA
- IC50 (lung adenocarcinoma H596): 400 to 800 µg/mL
- granulocyte differentiation (NBT positive cells) (HL-60 [6]; NaPA 0.8 and 1.6 mg/ml, 4 or 7 days): capable of inducing granulocyte differentiation in HL-60
- banded and segmented neutrophils capable of NBT (HL-60 [6]; [7]): 30-40%
- early stage myelocytes and metamyelocytes (HL-60 [6]; [7]): 30-50%
- expression of collagenase type IV (collagenase type IV): inhibited the expression of collagenase type IV
- concentration causing about 50% inhibition of growth (Malignant Melanoma A375; A375): 0.4 to 0.8 mg/mL
- % Inhibition by NaPA 0.8 mg/ml (Malignant Melanoma A375; A375, 0.8 mg/ml, within one week of treatment): ≥ 70%
- Growth (Malignant Melanoma A375; NaPA 400 µg/ml): 63.3 % of control
- Viability (Malignant Melanoma A375; NaPA 400 µg/ml): > 95%
- cell proliferation (10T1/2): dose dependent inhibition of cell proliferation
- inhibition at 800 µg/mL (Fibrosarcoma V7T; [8]): ≤ 30%
- IC50 (Fibrosarcoma V7T; [9]): 1000 to 1500 µg/mL
- inhibition at 800 µg/mL (Osteosarcoma HOS): < 20%
- inhibition at 800 µg/mL (Osteosarcoma KRIB; [8]): ≤ 30%
- IC50 (Osteosarcoma KRIB; [9]): 1000 to 1500 µg/mL
- Tumors Diameter (C3H 10T1/2 Cells): 0 mm ± S.D.
- Tumors Incidence (C3H 10T1/2 Cells; 1 x 10^6 cells s.c.): 0/8
